Test results as given in PMC10584170, “Machine learning-based phenotypic imaging to characterise the targetable biology of Plasmodium falciparum male gametocytes for the development of transmission-blocking antimalarials” (PLOS Pathogens, 2023).
Where two headings read alike, the source gives them in different places.

Legend:
[1] = system: P. falciparum female gametocytes; assay: P. falciparum Dual Gamete Formation Assay (PfDGFA), female readout (Pfs25-positive female gametes); format: cell-based, Plasmodium falciparum NF54; details: for Selectivity ratio F: HepG2 Tox50 versus female IC50; for IC50: PfDGFA, 24 h incubation with gametocytes before induction, female gamete readout, read-out: Female IC50; for HitlevelF: number of replicates with >50% inhibition in the female readout
Summary of the method: (§1)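 Mature NF54 gametocytes (day 14) were incubated with compound for 24 h at 37°C under 1% O2/3% CO2, then triggered with xanthurenic acid ookinete medium plus Cy3-anti-Pfs25. Exflagellation was imaged by brightfield; after a further 24 h at 28°C, Pfs25-positive female gametes were imaged by fluorescence and counted by automated image analysis.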

HepG2 cells = assay: HepG2 cytotoxicity counter-screen; details: cytotoxic activity against HepG2 cells
[2] = system: P. falciparum male gametocytes; assay: P. falciparum Dual Gamete Formation Assay (PfDGFA), male readout (exflagellation); format: cell-based, Plasmodium falciparum NF54; details: for Selectivity Ratio M: HepG2 Tox50 versus male IC50; for IC50: PfDGFA, 24 h incubation with gametocytes before induction, exflagellation readout, read-out: Male IC50; for HitlevelM: number of replicates with >50% inhibition in the male readout
Summary of the method: as §1

[3] = 2µM, 24h preincubation with gametocytes, average of replicates
[4] = 2µM, 24h preincubation with gametocytes, replicate R1
[5] = 2µM, 24h preincubation with gametocytes, replicate R3
[6] = 2µM, 24h preincubation with gametocytes, replicate R4
[7] = PfDGFA at 2µM, 24h preincubation with gametocytes, average of replicates
[8] = PfDGFA at 2µM, 24h preincubation with gametocytes, replicate R1
[9] = PfDGFA at 2µM, 24h preincubation with gametocytes, replicate R3
[10] = PfDGFA at 2µM, 24h preincubation with gametocytes, replicate R4
[11] = 2µM, 24h preincubation with gametocytes prior to induction of gametogenesis, average of replicates
[12] = 2µM, 24h preincubation with gametocytes prior to induction of gametogenesis, replicate R1
[13] = 2µM, 24h preincubation with gametocytes prior to induction of gametogenesis, replicate R3
[14] = 2µM, 24h preincubation with gametocytes prior to induction of gametogenesis, replicate R4

| SMILES | Selectivity ratio F [1] | Tox50 (HepG2 cells) [µM] | Selectivity Ratio M [2] | Average inhibition female (%) [1, 3] [%] | % inhibition female (individual replicates) R1 [1, 4] [%] | % inhibition female (individual replicates) R3 [1, 5] [%] | % inhibition female (individual replicates) R4 [1, 6] [%] | IC50 [1] [nM] | Average inhibition male (%) [2, 3] [%] | % inhibition male (individual replicates) R1 [2, 4] [%] | % inhibition male (individual replicates) R3 [2, 5] [%] | % inhibition male (individual replicates) R4 [2, 6] [%] | IC50 [2] [nM] | Average inhibition female (%) [1, 7] [%] | % inhibition female (individual replicates) R1 [1, 8] [%] | % inhibition female (individual replicates) R3 [1, 9] [%] | % inhibition female (individual replicates) R4 [1, 10] [%] | HitlevelF ([1]; 2µM) | Average inhibition male (%) [2, 7] [%] | % inhibition male (individual replicates) R1 [2, 8] [%] | other results |
| --- | --- | --- | --- | --- | --- | --- | --- | --- | --- | --- | --- | --- | --- | --- | --- | --- | --- | --- | --- | --- | --- |
| COCCCNC(=S)NN=C(C)c1ccccn1 [TCMDC-137907] | 1.2 | 0.48 | 1.14 | – | – | – | – | – | – | – | – | – | – | – | – | – | – | – | – | – | inhibition at 2 µM ([1]; Plasmodium falciparum, 2µM, 24h preincubation with gametocytes, average of replicates, read-out: Average inhibition female (%)): 95.6%; inhibition at 2 µM ([1]; Plasmodium falciparum, 2µM, 24h preincubation with gametocytes, replicate R1, read-out: % inhibition female (individual replicates) R1): 95.7%; inhibition at 2 µM ([1]; Plasmodium falciparum, 2µM, 24h preincubation with gametocytes, replicate R2, read-out: % inhibition female (individual replicates) R2): 91.5%; inhibition at 2 µM ([1]; Plasmodium falciparum, 2µM, 24h preincubation with gametocytes, replicate R3, read-out: % inhibition female (individual replicates) R3): 100%; inhibition at 2 µM ([1]; Plasmodium falciparum, 2µM, 24h preincubation with gametocytes, replicate R4, read-out: % inhibition female (individual replicates) R4): 94.6%; IC50 ([1]; Plasmodium falciparum): 400 nM; inhibition at 2 µM ([2]; Plasmodium falciparum, 2µM, 24h preincubation with gametocytes, average of replicates, read-out: Average inhibition male (%)): 100%; inhibition at 2 µM ([2]; Plasmodium falciparum, 2µM, 24h preincubation with gametocytes, replicate R1, read-out: % inhibition male (individual replicates) R1): 99.7%; inhibition at 2 µM ([2]; Plasmodium falciparum, 2µM, 24h preincubation with gametocytes, replicate R2, read-out: % inhibition male (individual replicates) R2): 100%; inhibition at 2 µM ([2]; Plasmodium falciparum, 2µM, 24h preincubation with gametocytes, replicate R3, read-out: % inhibition male (individual replicates) R3): 97.8%; inhibition at 2 µM ([2]; Plasmodium falciparum, 2µM, 24h preincubation with gametocytes, replicate R4, read-out: % inhibition male (individual replicates) R4): 103%; IC50 ([2]; Plasmodium falciparum): 420 nM |
| CN(CCCNCc1ccc2ccccc2c1)CCCNCc1ccc2ccccc2c1.Cl [TCMDC-137908] | 3.92 | 4.12 | 8.05 | 40.6 | 36.9 | 42.1 | 30.7 | 1050 | 96.1 | 95.1 | 92.7 | 98.2 | 510 | – | – | – | – | – | – | – | – |
| CCOc1cc(CNCCCCCCNCc2cc(OCC)c(OCC)c3ccccc23)c2ccccc2c1OCC.CS(=O)(=O)O [TCMDC-137939] | 0.94 | 2.02 | 1.34 | – | – | – | – | 2160 | – | – | – | – | 1510 | 45.9 | 31.3 | 12.7 | 67.3 | 2 | 69.9 | 72.9 | % inhibition male (individual replicates) R3 [2, 9]: 51.6%; % inhibition male (individual replicates) R4 [2, 10]: 76.9%; HitlevelM ([2]; 2µM): 4 |
| COc1cc2ccccc2cc1CCNCCCCNCCc1cc2ccccc2cc1OC.CS(=O)(=O)O [TCMDC-137944] | 1.14 | 3.94 | 3.14 | 77.7 | 77.0 | 80.9 | 77.1 | 3470 | 96.6 | 97.3 | 93.0 | 97.4 | 1260 | – | – | – | – | – | – | – | – |
| CCCOc1ccc(CCNCCCCNCCc2ccc(OCCC)c3ccccc23)c2ccccc12.CS(=O)(=O)O [TCMDC-137952] | 2.17 | 2.96 | 3.16 | 89.4 | 87.3 | 99.5 | 93.9 | 1370 | 93.9 | 96.8 | 100.0 | 100.7 | 940 | – | – | – | – | – | – | – | – |
| COc1ccc2c(OC)c(CNCCCCCCNCc3ccc4cc(OC)ccc4c3OC)ccc2c1.CS(=O)(=O)O [TCMDC-137953] | 2.26 | 3.73 | 2 | – | – | – | – | 1650 | – | – | – | – | 1870 | 35.6 | 27.7 | 6.7 | 49.3 | 1 | 70.9 | 72.9 | % inhibition male (individual replicates) R3 [2, 9]: 42.7%; % inhibition male (individual replicates) R4 [2, 10]: 88.9%; HitlevelM ([2]; 2µM): 3 |
| COc1ccc(CCNCCCCNCCc2ccc(OC)c3ccccc23)c2ccccc12.CS(=O)(=O)O [TCMDC-137961] | 1.85 | 3.73 | 3.28 | 83.6 | 91.7 | 93.4 | 91.7 | 2020 | 90.0 | 98.7 | 95.1 | 92.4 | 1140 | – | – | – | – | – | – | – | – |
| CC(C)Oc1ccc2ccccc2c1CNCCCCCCNCc1c(OC(C)C)ccc2ccccc12.CS(=O)(=O)O [TCMDC-137965] | 1.26 | 3.22 | 1.91 | – | – | – | – | 2560 | – | – | – | – | 1690 | 48.8 | 46.4 | 51.5 | 48.5 | 1 | 73.8 | 86.0 | % inhibition male (individual replicates) R3 [2, 9]: 74.0%; % inhibition male (individual replicates) R4 [2, 10]: 91.3%; HitlevelM ([2]; 2µM): 3 |
| CCCOc1ccc2ccccc2c1CNCCCCCCNCc1c(OCCC)ccc2ccccc12.CS(=O)(=O)O [TCMDC-137966] | 1.2 | 3.43 | 1.77 | – | – | – | – | 2860 | – | – | – | – | 1940 | 25.2 | 28.6 | 7.7 | 20.1 | 0 | 79.0 | 79.2 | % inhibition male (individual replicates) R3 [2, 9]: 56.4%; % inhibition male (individual replicates) R4 [2, 10]: 86.2%; HitlevelM ([2]; 2µM): 4 |
| COc1ccccc1-c1nc2c(ccc3nc(N)nc(N)c32)[nH]1 [TCMDC-137976] | 0.68 | 2.07 | 1.2 | – | – | – | – | 3030 | – | – | – | – | 1720 | 41.0 | 50.1 | 49.2 | 39.4 | 1 | 63.5 | 72.4 | % inhibition male (individual replicates) R3 [2, 9]: 76.7%; % inhibition male (individual replicates) R4 [2, 10]: 81.8%; HitlevelM ([2]; 2µM): 3 |
| CCOCn1c(-c2ccccc2)cc2c3c(N)nc(N)nc3ccc21 [TCMDC-137979] | 1.17 | 1.17 | 0.71 | – | – | – | – | 1000 | – | – | – | – | 1660 | – | – | – | – | – | – | – | Average inhibition female (%) [1, 11]: 82.0%; % inhibition female (individual replicates) R1 [1, 12]: 76.5%; % inhibition female (individual replicates) R3 [1, 13]: 82.3%; % inhibition female (individual replicates) R4 [1, 14]: 83.9%; HitlevelF ([1]; 2µM, 24h preincubation): 4; Average inhibition male (%) [2, 11]: 42.1%; % inhibition male (individual replicates) R1 [2, 12]: 55.5%; % inhibition male (individual replicates) R3 [2, 13]: 46.9%; % inhibition male (individual replicates) R4 [2, 14]: 49.0%; HitlevelM ([2]; 2µM, 24h preincubation): 1 |
| CCOc1cc(OCC)c2ccccc2c1CNCCCCCCNCc1c(OCC)cc(OCC)c2ccccc12.CS(=O)(=O)O [TCMDC-137982] | 1.67 | 2.84 | 2.69 | 82.9 | 76.1 | 92.8 | 83.8 | 1700 | 97.2 | 95.9 | 96.2 | 100.2 | 1060 | – | – | – | – | – | – | – | – |
